Assay results: a melting point compilation (Tetko et al.; mined from patent text by program, amines drawn as free bases though some values may be those of a salt)

SMILES	melting point [°C]
COc1ccc(-c2c(Cl)c(CN3C(=O)COC3=O)nc3sc4c(c23)CCC(C(N)=O)C4)cc1 (centres undefined)	155 to 156
Cc1cccnc1N[C@H]1CC[C@H](C2CCCCC2)CC1	65 to 67
CC(=O)Nc1ccc([N+](=O)[O-])cc1OC[Si](C)(C)C	128
O=C(O)c1cn(-c2ccc(F)cc2)c2c(F)c(N3Cc4ccc(Cl)cc4C3)c(F)cc2c1=O	> 300
N#Cc1cc2c3c(cccc3c1N1CCCCC1)C(=O)N(O)C2=O	> 250
O=C1N(CC2CCCO2)c2ccccc2C12COc1cc3c(cc12)CCCO3 (centres undefined)	151 to 156
COc1ccc2c(c1)C(c1ccccc1)NN=C2Cc1c(Cl)cncc1Cl (centres undefined)	175 to 177
O=C(NC[C@H]1CN(c2cc(F)c(N3CCC(n4cnnn4)CC3)c(F)c2)C(=O)O1)C1CC1	162 to 164
CC(C)(c1ccc(O)cc1)c1ccc(O)c(C(=O)Oc2ccccc2)c1	140
Cc1oc(-c2ccco2)nc1COc1ccc(CCCn2ccnc2)cc1	89 to 90
CN(C(=O)Nc1ccc2ccccc2c1)c1cccc(-c2ccc(CC(Nc3ccccc3C(=O)c3ccccc3)C(=O)O)cc2)c1 (centres undefined)	125
CN(C)C1(c2ccccc2)CCC(CNC(=O)NCCc2c[nH]c3ccccc23)CC1 (centres undefined)	159 to 163
CS(=O)c1ccc(CSc2nc(-c3ccc(F)cc3)c(-c3ccnc(Cl)c3)[nH]2)cc1 (centres undefined)	179
CCCCCc1nc2c(Nc3ccc(Cl)c(Cl)c3)nc3ccccc3c2[nH]1	195 to 200
CC(CCCC(C)(C)O)C1CCC2C3CC=C4CCCC(O)C4(C)C3CCC12C (centres undefined)	127 to 128
CN1C(=O)N(CCC(NS(=O)(=O)c2ccc(-c3ccc(Cl)cc3)cc2)C(=O)NO)C(=O)C1(C)C (centres undefined)	117 to 120
Cc1nc(-n2cnn(Cc3ccc(F)cc3)c2=O)sc1C(=O)NCc1cccnc1	178 to 179
CCCCCCCCCCCCCCCCC/C=C1\SC(=O)NC1=O	97 to 98.5
CCCCCCCCCCCCCCCCCCS(=O)(=O)c1cc(C(=O)O)c2c(c1)c(=O)on2C	177 to 179
O=C(Nc1ccc(Oc2ccccc2)cc1)c1cc([N+](=O)[O-])ccc1Cl	128
CCOC(Cc1ccc(OCCN(C)c2nc3ccccc3o2)cc1)C(=O)O (centres undefined)	109 to 110
Cc1cc(O)nc(SCC(N)=O)n1	238 to 240
O=C(Nc1cccc2c1C(=O)c1c-2n[nH]c1-c1ccc(C(=O)N2CCC[C@H]2CO)s1)NN1CCOCC1	267 to 268

SMILES	melting point [°C]
c1ccc2cc(OCCCCCCCCOc3ccc4ccccc4c3)ccc2c1	125 to 126
O=C(Oc1ccccc1)OC1c2nccnc2C(=O)N1c1ccc(Cl)cn1 (centres undefined)	193
Cc1nnc(SCC2=C(C(=O)O)N3C(=O)C(N)C3SC2)s1 (centres undefined)	206
CCOc1c(C)c(N2CCN(c3ccc(OC)cc3)CC2)c(C)c2c1OC(C)C2 (centres undefined)	106 to 108
O=C(NCCCO)c1c([N+](=O)[O-])ccc(N(CCBr)CCBr)c1[N+](=O)[O-]	115 to 117
CC(=O)c1cc2c(s1)SCCN(CCCCCl)C2=O	132 to 134
CCCCn1cc(C(=O)C(=O)O)c2cc(-c3cccc(OC)c3)ccc21	108 to 109
COc1cc(C(=O)CC(c2ccncc2)C(C)(C)[N+](=O)[O-])cc(OC)c1OC (centres undefined)	214 to 216
COc1ccc(Cn2nc(-c3ccc(C(=O)N4Cc5cccnc5Nc5ccccc54)c(Cl)c3)nc2C)cc1	218 to 221
Cc1ccc([C@@H]2c3c(C)c(N4C(=O)CC(c5ccccc5)CC4=O)c(C)c(C)c3OC2(C)C)cc1	118 to 122
O=C(O)c1ccc(C2OC2C(=O)c2ccccc2)cc1 (centres undefined)	170 to 172
CCOC(=O)c1cn(-c2cc(NC(=O)OCc3ccccc3)c(F)cc2F)c2cc(F)c(F)c(C)c2c1=O	202 to 204
CNC(=O)N(O)C(C)c1ccc(Br)cc1 (centres undefined)	129 to 130
CC(C)[C@]1(CCc2ccc(O)cc2)CC(O)=C(Sc2sc3ccccc3c2C(C)(C)C)C(=O)O1	207
COc1cc2c(=O)c(OS(C)(=O)=O)cn(C)c2cc1OC	216 to 217
OC1CSC(Oc2cccc(-c3ccncc3Cl)c2)C(O)C1O (centres undefined)	158 to 161
CNc1ccc(OC)cc1[N+](=O)[O-]	93 to 94
CC1CN(c2c(Cl)nc3ccc(F)cc3c2C(N)=O)CC(C)N1 (centres undefined)	169 to 170
O=C1CCCc2nc3ccccc3c(NCc3cccc(Cl)c3)c21	138 to 140
COc1ccc(C2c3cc(OC)c(OC)cc3CCN2C(=O)NCCN(C(C)C)C(C)C)cc1OC (centres undefined)	114 to 115
COC(=O)c1sc2ccc(N)cc2c1N	128 to 130
COC(=O)NC1CCC(Nc2ncc3ncnc(Nc4ccc(F)c(Cl)c4)c3n2)CC1 (centres undefined)	230 to 235
CCOC(=O)c1c(C)csc1N/C=C(\C#N)C(=O)OC(C)(C)C	144

SMILES	melting point [°C]
O=C(Nc1cccc(CN2C(=O)[C@H]3CCC[C@H]3Nc3ccccc32)c1)OCc1ccccc1 (relative stereo)	179 to 180
CC(C)Cc1cc(C(=O)NCCc2ccncc2)ccc1OCc1ccc(F)cc1	112
Cc1nc(-c2cccc(Cl)c2)c(CCC(=O)O)o1	159 to 160
O=C(O)CCCSC=CS(=O)(=O)CCCC(=O)O	120
Cc1ccc(S(=O)(=O)Nc2ccccc2CCC(=O)c2cnc3sc(C)c(C)n23)cc1	168 to 169
CCOC(=O)N1CC[C@@H](N2C(=O)c3ccccc3C2=O)[C@H](O)C1 (relative stereo)	128
CCCCCCCNC(=O)Nc1ccccc1CCc1cc(C(C)(C)C)c(O)c(C(C)(C)C)c1	100
COc1cc2c3c(n(Cc4ccccc4)c2cc1OC)CCCC3C(=O)N1CCN(c2ccccc2)CC1 (centres undefined)	245 to 247
COc1ccc2c(Cc3c(Cl)cncc3Cl)nnc(Oc3ccccc3)c2c1	130 to 132
Nc1ccc(-c2nc(Cc3ccccc3)no2)cc1Br	144 to 145
C=C(C)C(=O)Nc1cccc2c(O)cccc12	223 to 224
COc1nc(NC(=O)NS(=O)(=O)c2ccccc2CCC(F)(F)F)nc(OC)n1	177 to 178
CCCC(NS(=O)(=O)c1ccc(Cl)cc1)C(=O)NNC(=S)NC (centres undefined)	191 to 195
COC(=O)c1ccc(OC(=O)CCC(=O)Oc2ccc(C(=O)OC)cc2)cc1	190
CC(C)(O)Cc1cccc(C(F)(F)F)c1	55 to 56
OC(c1cccnc1)c1cc(F)ccc1F (centres undefined)	79 to 80
Cc1oc(-c2ccccc2)nc1CCC(N)=S	167 to 168
CC(Oc1ncn(-c2ccc(Br)cc2)n1)C(=O)O (centres undefined)	195 to 197
CCOC(=O)CNc1ccc(OCC(=O)OCC)c(NC(=O)c2ccc(OCCCCc3ccccc3)cc2)c1	61 to 63
CN(C)c1nc2n(n1)Cc1ccccc1-2	164 to 166
COc1cc2ncc(C#N)c(Nc3ccc(Oc4ccccc4)cc3)c2cc1OC	239 to 241
O=C1CN2CCOC2(c2ccccc2Cl)c2cc([N+](=O)[O-])ccc2N1 (centres undefined)	201 to 203
S=C(c1cc2n(c1)Cc1ccccc1-n1ccnc1-2)N1CCOCC1	210 to 211
